In patent publication US20230046617A1, “METHOD FOR PROMOTING EXPANSION OF HEMATOPOIETIC STEM CELLS AND AGENT FOR USE IN THE METHOD” (FARON PHARMACEUTICALS OY, priority 2020, published 2023):

Legend:
[1] = system: human umbilical CB-derived HSCs (CD34+CD38-); test: Liquid culture expansion of umbilical cord blood derived HSCs; assay type: cell-based
Protocol: For human umbilical CB cells, an antibody-based EasySep kit was used to enrich CD34^+CB cells, which were subsequently stained with anti-CD38 and anti-CD34 antibodies. CD38^−CD34^+ cells were sorted using a FACSAria Ilu instrument (BD Biosciences) and then cultured in StemSpan SFEM medium II (STEMCELL Technologies) containing human stem cell factor (100 ng/ml), FMS-like tyrosine kinase 3 ligand (100 ng/ml), and thrombopoietin (50 ng/ml) (all from Peprotech). Cells were seeded at a density of 1×10^3 per ml. LJP-1586 was added immediately after plating when indicated. Cultures were maintained for 21 days, and half the medium was replaced by that containing the same cytokines and LJP-1586 on days 5, 8, 12, 15, and 18. CD34^+ cells from human umbilical CB were isolated via a two-step procedure using Ficoll-Plaque gradient centrifugation (Amersham Pharmacia Biotech, Uppsala, Sweden) and an EasySep Human Cord Blood CD34 Positive Selection Kit II (STEMCELL Technologies). For batch and single cell sorting of VAP-1^+ and VAP-1^− cells from CB we used a Sony SH800 cell sorter with class A2 Level II biosafety cabinet using 130 μm microfluidic sorting chips. This sorter applies low shear stress on cells allowing better survival during cell culture. CD34^+ cells were also sorted into VAP-1^+ and VAP-1^−HSCs (Lineage-CD34+CD38). From these, 100 VAP-1+ and VAP-1−HSCs were then cultured in StemSpan SFEM medium II (STEMCELL Technologies) containing human stem cell factor (100 ng/ml), FMS-like tyrosine kinase 3 ligand (100 ng/ml), and thrombopoietin (50 ng/ml) (all from Peprotech). LJP-1586 was added immediately after plating at a concentration of 1 μM. Cultures were maintained for 20 days. Fresh medium containing the same cytokines and LJP-1586 was added on days 5, 8, 10, 12, 15 and 18. The cells were analysed on days 10 and 15 for CD38−CD34+CD45RA−CD90+ expression using LSR Fortessa instrument (BD Biosciences). Alternatively, a VAP-1 inhibitor szTU73 was used in CB cultures at concentrations 1, 5 and 10 micromolar.

[2] = system: human CD45+ cells engraftment in the BM of NBSGW mice; test: In vivo engraftment of sorted human BM cells in non-irradiated NBSGW mice; settings: VAP-1+ cells in the transfer pool; inhibitor 10 mg/kg i.p. three times a week for six weeks; cut-off 0.1% human CD45+
Description: Human fresh frozen BM CD34+ cells (LONZA) were thawed and stained with APC conjugated mouse anti-Lineage cocktail, PE-Cy7-conjugated anti-CD34 and FITC-conjugated monoclonal antibodies 1B2, TK8-14, and JG-2 against different epitopes of human VAP-1. For batch cell sorting of VAP-1^+/lo and VAP-1^− cells we used a Sony SH800 cell sorter with class A2 Level II biosafety cabinet using 130 μm microfluidic sorting chips. The NBSGW (immune-deficient, c-Kit-deficient) mice not needing irradiation to accept human cells were used as […]. In the VAP-1^− group 19000 cells and in the VAP-1−+VAP-1^+/lo group 16250 VAP-1^− cells and 2750 VAP-1^+/lo cells were intravenously injected per animal. […] Samples were run on LSR fortessa and the data was analyzed with FlowJo. Percentage of chimerism [% chimerism=(% test donor-derived cells)×100/((% test donor-derived cells+(% competitor-derived cells))] was calculated as described (Ema et al., “Adult mouse hematopoietic stem cells: purification and single-cell assays”, Nat Protoc 2006 1(6), 2979-2987).

[3] = system: ROS in human CD34+ BM cells (CD38-CD34+ gated); test: ROS production (oxidative burst) by DHR-123 and flow cytometry; assay type: cell-based; settings: 9-day liquid cultures, PMA activation, bone marrow derived HSCs
Protocol: Human CD34^+BM cells were liquid cultured for nine days in StemSpan SFEM medium II (STEMCELL Technologies) containing human stem cell factor (100 ng/ml), FMS-like tyrosine kinase 3 ligand (100 ng/ml), and thrombopoietin (50 ng/ml) (all from Peprotech) with or without LJP-1586. After nine days, the cells were stained with anti-CD38 and anti-CD34 antibodies, washed using DMEM, centrifuged and resuspended in 100 μl DMEM. Then, ROS were detected by DHR-123 reagent (Molecular Probes). For this, DHR-123 was diluted in DMSO and kept as a 5 mM stock solution at −20° C. for single use. […] The cells were then incubated for 10 min at 37° C. and followed by activation with Phorbol 12-myristate 13-acetate (PMA) (Sigma-Aldrich. The stock solution of PMA was frozen at 1 mg/ml in DMSO, freshly thawed and diluted 500 times in order to add 12.5 μl to a final concentration of 200 ng/ml. After 20 min at 37° C., the cells were washed with PBS, resuspended and analyzed by flow cytometry. The red DHR123 turns to green after oxidation. CD38^− and CD34^+ positive cells were gated and fluorescence intensity of oxidized DHR-123 was measured from the filter channel 530 nm/30 nm using LSR Fortessa instrument (BD Biosciences) and analyzed by FlowJo software (Tree Star).

[4] = system: human BM-derived CD34+ cells; test: CFU assay of human BM-derived CD34+ cells with replating; assay type: cell-based; settings: LJP-1586 0.5 μM
Protocol: (§1) The progeny of 900 CD38^−CD34^+ cells collected from 15-day-old in vitro cultures, obtained as described above, were grown in methylcellulose-based medium (H4436, STEMCELL Technologies) containing or lacking LJP-1586. After 14 days, single, multilineage, and mixed colonies were visually scored by microscopy. Cryopreserved human CD34^+ cells from AllCells were thawed, resuspended, and counted according to the manufacturer's protocol. Five hundred thawed human BM CD34^+ cells were cultured in complete methylcellulose-based medium (H4436, STEMCELL Technologies) containning or lacking LJP-1586. The total number of colonies was counted at 14 days after plating. Replating was performed twice by harvesting and dissociating cells under sterile conditions.

CB-derived HSCs = test: CFU assay of CB-derived cells expanded in liquid culture; assay type: cell-based, human; settings: after 15 days liquid culture with LJP-1586 (0.5 μM), then CFU assay with LJP-1586
Protocol: as §1

## COc1ccc(C/C(=C/F)CN)cc1.Cl [LJP-1586, Z-3-fluoro-2-(4-methoxybenzyl)allylamine hydrochloride]
[1]; 1 μM, 15 days, average of three donors
  number of primitive HSCs (CD34+CD38-CD45RA-CD90+CD49f+) compared to non-treated cultures: 11 times
[1]; 1 μM, grown for 18 days
  HSC expansion compared to control cells: more than 31 times
[1]; CD34+CD38-CD45RA-CD90+CD49f+
  share of HSCs in gate P-3 that were primitive HSCs: More than 12%
[1]; day 20, 1 μM
  expansion of VAP-1+ HSCs in long term liquid cultures: boosted their expansion
[1]; higher or lower concentrations than 1 μM
  expansion of HSCs at other concentrations: less efficient
[2]
  mice that accepted the human BM engraftment: 3/3
[3]
  ROS reduction (MFI) compared to control cells: 62%
[4]; after dissociating and re-plating twice
  number of CFUs higher than control cultures after re-plating: 92%
[4]; first plating, 500 BM CD34+ cells
  number of CFUs higher than control cultures: 33%
CB-derived HSCs
  number of CFUs compared to control cultures: 7.9 times
